US11161860B2, “Compound having effects of inhibiting phosphodiesterase 4, preparation method thereof and pharmaceutical use thereof” (Hefei Industrial Pharmaceutical Institute Co., Ltd., priority 2018, dated 2021)
Marks after values point to notes of the source that are not given here.

Assays:
[1] = molecular target: T1, PDE4A enzyme (Homo sapiens, UniProt P27815); test: Inhibition of the activity of PDE4A enzyme (fluorescence polarization, Transcreener AMP2/GMP2); format: biochemical; settings: 1 h, mean ± spread; for remaining activity at 0.01 µM: 0.01 μM compound; for remaining activity at 0.1 µM: 0.1 μM compound; for remaining activity at 1 µM: 1 μM compound
T1 construct: GST (N); host or cells: Sf9 insect cells (baculovirus)
T1 sequence (P27815 whole entry, species assumed): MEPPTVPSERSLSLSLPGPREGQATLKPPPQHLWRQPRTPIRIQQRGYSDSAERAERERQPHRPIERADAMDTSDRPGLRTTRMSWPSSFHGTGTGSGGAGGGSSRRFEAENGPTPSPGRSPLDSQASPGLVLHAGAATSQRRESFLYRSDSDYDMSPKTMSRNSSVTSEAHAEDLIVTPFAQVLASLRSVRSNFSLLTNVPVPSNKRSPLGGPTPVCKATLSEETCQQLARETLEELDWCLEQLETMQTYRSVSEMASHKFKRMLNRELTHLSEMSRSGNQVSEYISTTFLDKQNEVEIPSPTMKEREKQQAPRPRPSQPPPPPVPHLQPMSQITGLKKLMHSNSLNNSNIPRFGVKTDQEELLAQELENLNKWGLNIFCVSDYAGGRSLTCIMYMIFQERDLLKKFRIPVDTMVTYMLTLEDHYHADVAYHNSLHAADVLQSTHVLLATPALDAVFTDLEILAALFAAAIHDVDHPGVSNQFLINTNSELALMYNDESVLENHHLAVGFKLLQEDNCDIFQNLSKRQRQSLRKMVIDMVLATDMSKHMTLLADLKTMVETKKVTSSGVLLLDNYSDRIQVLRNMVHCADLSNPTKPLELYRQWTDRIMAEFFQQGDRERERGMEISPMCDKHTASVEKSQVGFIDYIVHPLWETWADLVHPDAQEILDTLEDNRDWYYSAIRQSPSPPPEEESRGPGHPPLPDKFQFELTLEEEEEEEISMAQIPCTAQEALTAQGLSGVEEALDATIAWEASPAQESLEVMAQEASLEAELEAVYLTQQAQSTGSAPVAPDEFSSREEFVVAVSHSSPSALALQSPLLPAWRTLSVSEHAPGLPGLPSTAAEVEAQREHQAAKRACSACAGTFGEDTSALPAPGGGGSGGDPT
Method: The PDE4A enzyme expressed from baculovirus is labeled with N-terminal GST from Sf9 insect cells. A specified PDE4A enzyme and 1 mM cAMP are added to the newly prepared pH 7.5 Tris buffer, the enzyme solution is transferred into reaction wells, and the compound is sonicated in DMSO and then added to the enzyme solution for culturing for 10 minutes at room temperature; the substrate solution is poured into the reaction wells to initiate the reaction and cultured at room temperature for 1 hour, and a detection tracer (AMP2/GMP2 AlexaFluor 633 Tracer) and an antibody (Transcreener® AMP2/GMP2 Antibody) are added to stop the reaction for culturing for 90 minutes with gentle mixing. […]

[2] = system: DNCB-induced atopic dermatitis mice; test: DNCB-induced dermatitis mouse model, skin thickness; format: in vivo, female BALB/C mice; settings: for reduction of the thickness of the dermis compared with Crisaborole / reduction of the thickness of the epidermis compared with Crisaborole / reduction of the thickness of the dermis compared with the compound Y5 / reduction of the thickness of the epidermis compared with the compound Y5: 50 mg/mL topical; for reduction of the thickness of the dermis compared with Crisaborole / reduction of the thickness of the epidermis compared with Crisaborole: statistical comparison vs Crisaborole group; for reduction of the thickness of the dermis compared with the compound Y5 / reduction of the thickness of the epidermis compared with the compound Y5: statistical comparison vs Y5 group; for Epidermal thickness / Dermis thickness: 50 mg/mL, 100 μL applied to back skin, 11 times once a day, Mean ± SD, n = 8; for Epidermal thickness: model 137.76, blank 48.93; for Dermis thickness: model 500.71, blank 194.70; for reduction of the thicknesses of the epidermal layer and dermal layer: vs model group, P<0.01
Method: After female BALB/C mice are selected, each weighing 18-22 g, for animal adaptive breeding for 7 days, these are randomly divided into a blank group, a model group, a positive drug Crisaborole group, a hexadecadrol group, and compound groups, with 8 in each group. Except for the mice in the blank group, the remaining mice are applied with 100 μL of a 1% DNCB solution [acetone: olive oil=4:1 (V/V)] on the skin of the back of the shaved mice, and applied continuously for 3 days once a day. Then, dosing treatment starts 4 days after the mice are housed, and the test drug is applied to the back of each group of animals, wherein animals in the blank group and the model group are applied with a corresponding solvent, the positive drug Crisaborole group and hexadecadrol group are applied with 50 mg/mL of a corresponding drug, and the administration group is applied with 50 mg/mL of a corresponding compound, with 100 μL for each mouse; after application of 4 hours, 0.5% DNCB solution is applied for secondary challenge, and repeated administration and challenge treatment are performed 11 times, once a day. 24 hours after the last administration, the animals are sacrificed, and the back skins (1×0.4 cm^2) are taken and fixed in 10% formalin buffer to make pathological sections and perform HE staining; then, the epidermal and dermal layers are observed under a 100× […], and 5 areas are selected for detection of and recording the skin thickness, and then the average value is taken to represent the final thicknesses of the epidermal layer and dermal layer, respectively.

remaining activity at 0.01 µM [1] [%] | remaining activity at 0.1 µM [1] [%] | remaining activity at 1 µM [1] [%] | SMILES | reduction of the thickness of the dermis compared with Crisaborole [2] | reduction of the thickness of the epidermis compared with Crisaborole [2] | reduction of the thickness of the dermis compared with the compound Y5 [2] | reduction of the thickness of the epidermis compared with the compound Y5 [2] | Epidermal thickness [2] | Dermis thickness [2] | reduction of the thicknesses of the epidermal layer and dermal layer [2]
1.05 ± 1.26 | 0.45 ± 0.3 | 0.21 ± 0.57 | N#Cc1cc2ccc(Oc3ccc4c(c3)COB4O)nc2cc1Cl [PD-16] | significantly reduce the thickness of the dermis of dermatitis mice (P≤0.01) | significantly reduce the thickness of the epidermis (P≤0.01) | significantly reduce the thickness of the dermis of dermatitis mice (P≤0.05) | significantly reduce the thickness of the epidermis (P<0.05) | 78.64 ± 9.75 a μm | 388.46 ± 24.06 a μm | 
6.13 ± 0.93 | 3.64 ± 0.48 | 1.78 ± 0.5 | COC(=O)c1ccc2nc(Oc3ccc4c(c3)COB4O)cc(F)c2c1 [PD-20] |  |  |  |  | 98.74 ± 10.55 μm | 438.14 ± 29.71 μm | 
9.26 ± 0.73 | 4.51 ± 0.94 | 2.45 ± 0.76 | OB1OCc2cc(Oc3ccc4cc(C(F)(F)F)ccc4c3)ccc21 [PD-23] |  |  |  |  | 97.34 ± 8.36 μm | 435.56 ± 27.08 μm | 
9.01 ± 2.02 | 7.27 ± 1.78 | 3.46 ± 1.18 | COC(=O)c1cc(Oc2ccc3c(c2)COB3O)nc2ccccc12 [PD-5] |  |  |  |  | 106.74 ± 15.14 μm | 440.12 ± 23.22 μm | 
18.8 ± 3.23 | 5.45 ± 1.06 | 3.74 ± 0.71 | COC(=O)c1cccc2nc(Oc3ccc4c(c3)COB4O)ccc12 [PD-1] | significantly reduce the thickness of the dermis of dermatitis mice (P≤0.01) | significantly reduce the thickness of the epidermis (P≤0.01) | significantly reduce the thickness of the dermis of dermatitis mice (P≤0.05) | significantly reduce the thickness of the epidermis (P≤0.01) | 75.64 ± 7.86 aa μm | 385.26 ± 20.17 a μm | 
 |  |  | C[C@@H]1C[C@H]2[C@@H]3CCC4=CC(=O)C=C[C@]4(C)[C@@]3(F)[C@@H](O)C[C@]2(C)[C@@]1(O)C(=O)CO [hexadecadrol, reference compound] |  |  |  |  | 72.14 ± 10.58 ^a a μm | 377.32 ± 22.05**^a a μm | significantly reduce the thicknesses of the epidermal layer and dermal layer
10.1 ± 1.93 | 5.85 ± 0.72 | 1.7 ± 0.43 | NC(=O)c1cccc2nc(Oc3ccc4c(c3)COB4O)ccc12 [PD-11] |  |  |  |  | 95.37 ± 8.75 μm | 443.17 ± 33.40 μm | 
22.1 ± 0.57 | 6.2 ± 1.23 | 3.46 ± 1.12 | CC(=O)c1cccc2nc(Oc3ccc4c(c3)COB4O)ccc12 [PD-12] | significantly reduce the thickness of the dermis of dermatitis mice (P≤0.01) | significantly reduce the thickness of the epidermis (P≤0.01) | significantly reduce the thickness of the dermis of dermatitis mice (P≤0.01) | significantly reduce the thickness of the epidermis (P≤0.01) | 72.15 ± 8.57 aa μm | 362.44 ± 25.78 ^a a μm | 
7.17 ± 0.64 | 1.95 ± 1.18 | 2.27 ± 0.74 | N#Cc1ccc2cc(Oc3ccc4c(c3)COB4O)ccc2c1 [PD-25] | significantly reduce the thickness of the dermis of dermatitis mice (P≤0.05) | significantly reduce the thickness of the epidermis of the dermatitis mice (P≤0.05) |  |  | 87.77 ± 10.58 μm | 412.42 ± 26.74 μm | 
1.64 ± 0.55 | 0.33 ± 0.23 | 0.28 ± 0.14 | OB1OCc2cc(Oc3cc(F)c4cc(C(F)(F)F)ccc4n3)ccc21 [PD-21] | significantly reduce the thickness of the dermis of dermatitis mice (P≤0.01) | significantly reduce the thickness of the epidermis (P≤0.01) | significantly reduce the thickness of the dermis of dermatitis mice (P≤0.05) | significantly reduce the thickness of the epidermis (P≤0.01) | 70.62 ± 7.12 ^aa μm | 383.34 ± 24.40**^##a μm | 
17.3 ± 1.19 | 4.94 ± 1.56 | 1.98 ± 0.47 | CCOC(=O)c1cccc2nc(Oc3ccc4c(c3)COB4O)ccc12 [PD-3] | significantly reduce the thickness of the dermis of dermatitis mice (P≤0.05) |  |  |  | 98.74 ± 9.63 μm | 420.80 ± 30.55 μm | 
12.9 ± 1.86 | 9.49 ± 1.59 | 2.69 ± 1.77 | COC(=O)c1ccc2nc(Cl)cc(Oc3ccc4c(c3)COB4O)c2c1 [PD-27] |  |  |  |  | 97.73 ± 8.95 μm | 430.05 ± 27.90 μm | 
1.52 ± 0.44 | 0.46 ± 0.35 | 0.13 ± 0.06 | COC(=O)c1ccc2nc(Oc3ccc4c(c3)COB4O)cc(C(F)(F)F)c2c1 [PD-18] |  |  |  |  | 90.35 ± 11.20 μm | 436.16 ± 35.42 μm | 
21.7 ± 1.51 | 8.68 ± 0.89 | 1.44 ± 0.4 | NC(=O)c1ccc2nc(Oc3ccc4c(c3)COB4O)ccc2c1 [PD-13] |  |  |  |  | 100.23 ± 11.62 μm | 450.26 ± 25.55 μm | 

SMILES | remaining activity at 0.01 µM [1] [%] | remaining activity at 0.1 µM [1] [%] | remaining activity at 1 µM [1] [%] | reduction of the thickness of the dermis compared with Crisaborole [2] | reduction of the thickness of the epidermis compared with Crisaborole [2] | reduction of the thickness of the dermis compared with the compound Y5 [2] | reduction of the thickness of the epidermis compared with the compound Y5 [2] | Epidermal thickness [2] | Dermis thickness [2] | reduction of the thicknesses of the epidermal layer and dermal layer [2]
OB1OCc2cc(Oc3ccc(C(F)(F)F)cn3)ccc21 [Compound Y5, reference compound] | 61.3 ± 3.18 | 15.3 ± 1.3 | 5.56 ± 0.28 | significantly reduce the thickness of the dermis of dermatitis mice (P≤0.01) | significantly reduce the thickness of the epidermis of the dermatitis mice (P≤0.05) |  |  | 90.14 ± 8.98 μm | 415.08 ± 25.00 μm | significantly reduce the thicknesses of the epidermal layer and dermal layer
N#Cc1ccc(Oc2ccc3c(c2)COB3O)cc1 [Crisaborole, reference compound] | 78 ± 5.02 | 35.2 ± 3.35 | 11 ± 0.52 |  |  |  |  | 105.26 ± 11.35 μm | 455.14 ± 27.27 μm | significantly reduce the thicknesses of the epidermal layer and dermal layer
